Patent US11795190B2, “D-glycero-B-D-heptose 1-phosphate (HMP) conjugates and use for targeted immune modulation” (NATIONAL RESEARCH COUNCIL OF CANADA, priority 2017, dated 2023)

Tests used:
[1] = test system: human colonic epithelial cells (HCT 116), wild type; assay: IL-8 ELISA in wild type HCT 116 cells after digitonin-permeabilised stimulation; assay type: cell-based; conditions: FIG. 11; WT HCT 116; 10, 30 or 50 μg/mL, digitonin 20 min, IL-8 after 6 hours
Description: Wild type (WT) or TIFA knockout (TIFA KO) cells were treated with compounds in the presence of digitonin for 20 min, treatment was removed, cells were washed and then cultured in normal medium without the synthetic compounds for 6 hr before IL-8 levels in culture supernatants were measured by ELISA. (A) Cells were treated with water or 10 μg/mL of the indicated compound. Data are means±standard error mean of technical triplicates. (B) Cells were treated with the NOD1 agonist C12-iE-DAP (39.8 μM) or with two different molar concentrations of compounds (30 μM or 150 μM). Two batches of dd-β-HBP and dd-β-HMP synthesized independently of one another were tested (batch #1 and batch #2) to assess consistency of the chemical synthesis. Data are means±standard error mean of two (150 μM treatment) or three (all other treatments) independent experiments. Nod1 agonist: C12-iE-DAP (20 μg/ml, 39.8 μM); JS-12: D-glycero-D-manno-heptose; JS-2: D-glycero-D-manno-heptose 7-phosphate; JS-7:D-glycero-β-D-manno-heptose-phosphate; JS-8: d-glycero-α-d-manno-heptose-phosphate; JS-9: β-d-mannose phosphate; JS-6:d-glycero-β-d-manno heptose 1,7-biphosphate; JS-5: d-glycero-α-d-manno heptose 1,7-biphosphate.
FIG. 11. Stimulation of human colonic epithelial cells by compounds/products according to the invention. Human colonic epithelial cells (HCT 116) that were either wild type (WT) or deficient in TIFA protein expression (knockout, KO) were stimulated for 20 minutes in permeabilization buffer (5 μg/mL digitonin) in the presence of water or 10 μg/mL, 30 μg/mL, or 50 μg/mL of indicated synthetic compounds according to the invention. Treatment was removed, cells were washed, and cells were incubated for 6 hours in complete media before IL-8 levels in culture supernatants was measured by ELISA. The results are the mean±standard error of the mean of three technical replicates. JS-10: 7-O-(Aminoethyl)-D-glycero-β-D-manno-heptopyranose phosphate; JS-11: 7-O-(Aminoethyl) -D-glycero-D-manno-heptopyranose; JS-12: D-glycero-D-manno-heptose; Js-13: pH-Rhodo -7-O-(aminoethyl)-D-glycero-β-D-manno-heptopyranose phosphate.
FIG. 13. […] Treatment was removed, cells were washed, and cells were incubated for 6 hours in complete media before IL-8 levels in culture supernatants were measured by ELISA. The results are the mean±standard error of the mean of two (150 μM treatment) or three (all other treatments) independent experiments. #=none detected, JS-10: 7-O-(Aminoethyl)-d-glycero-β-d-manno-heptopyranose phosphate; JS-14: Biotin-7-O-(aminoethyl)-d-glycero-β-d-manno-heptopyranose phosphate, Nod1 agonist: C12-iE-DAP (20 μg/ml, 39.8 μM).
FIG. 16. […] Treatment was removed, cells were washed, and cells were incubated for 6 hours in complete media before IL-8 levels in culture supernatants were measured by ELISA. […]

[2] = test system: TIFA knockout (TIFA KO) HEK 293T cells encoding an NF-κB-driven luciferase reporter gene; assay: NF-κB-driven luciferase reporter assay in TIFA knockout HEK 293T cells; assay type: cell-based, human; conditions: TIFA KO cells
Description: FIGS. 10A-B. Effect of chemically synthesised analogues on human embryonic kidney cells (HEK 293T) encoding an NF-κB-driven luciferase reporter gene. NF-κB luciferase activity was measured in wild type (WT) or TIFA knockout (TIFA KO) cells treated with compounds in the presence of digitonin for 20 min, washed, and then cultured in normal medium without the synthetic compounds for 6 hrs after treatment, before luciferase activity was measured. (A) Cells were treated with 10 μg/mL of the indicated compound. Data are means±standard error mean of technical triplicates. (B) Cells were treated with two different molar concentrations of compound (30 μM or 150 μM). Two batches of DD-β-HBP and DD-β-HMP synthesized independently of one another were tested (batch #1 and batch #2) to assess consistency of the chemical synthesis. Data are means±standard error mean of technical triplicates and are representative of three independent experiments. JS-12: D-glycero-D-manno-heptose; JS-2: D-glycero-D-manno-heptose 7-phosphate; JS-7:D-glycero-β-D-manno-heptose-phosphate; JS-8: D-glycero-α-D-manno-heptose-phosphate; JS-9: β-D-mannose phosphate; JS-6:D-glycero-β-D-manno heptose 1,7-biphosphate; JS-5: D-glycero-α-D-manno heptose 1,7-biphosphate.

[3] = test system: human macrophage cells (THP-1); assay: IL-8 ELISA in THP-1 cells after digitonin-permeabilised stimulation; assay type: cell-based; conditions: FIG. 15, higher (150 μM) concentrations, digitonin 20 min, IL-8 after 6 hours
Description: FIG. 15. Stimulation of human macrophages by compounds/products according to the invention. Human macrophage cells (THP-1) were stimulated for 20 minutes in permeabilization buffer (5 μg/mL digitonin) in the presence of water, 39.8 μM of the Nod1 agonist C12-iE-DAP (which stimulates in a TIFA-independent manner), or either 30 μM or 150 μM of synthetic compound according to the invention. Treatment was removed, cells were washed, and cells were incubated for 6 hours in complete media before the IL-8 levels in culture supernatants were measured by ELISA. The results are the mean and standard error of the mean of three technical replicates. Nod1 agonist: C12-iE-DAP (20 μg/ml, 39.8 μM); JS-7: JS-7:D-glycero-β-D-manno-heptose-phosphate; JS-10: 7-O-(Aminoethyl)-D-glycero-β-D-manno-heptopyranose phosphate; JS-14: Biotin-7-O-(aminoethyl)-D-glycero-β-D-manno-heptopyranose phosphate.

NCCOC[C@@H](O)C1O[C@@H](OP(=O)([O-])[O-])C(O)[C@@H](O)[C@@H]1O.[Na+].[Na+] (stereo partly drawn) [JS-10a, 7-O-(Aminoethyl)-D-glycero-β-D-manno-heptopyranose phosphate]
inflammatory response (IL-8 in culture supernatant) [1]: modest inflammatory response
activity in TIFA KO cells (NF-κB luciferase), TIFA dependence ([2]; FIG. 12, 10, 30 or 50 μg/mL): relative absence of activity
activity in TIFA KO cells (NF-κB luciferase), TIFA dependence ([2]; FIG. 14, 30 μM or 150 μM): relative absence of activity
inflammatory response (IL-8 in culture supernatant) [3]: stimulate an inflammatory response
